Measured values as given in US7795208B2, “Methods of using deacetylase inhibitors to promote cell differentiation and regeneration” (The Salk Institute for Biological Study, priority 2001, dated 2010).
Several values for one entry are separate records, joined by “and”; a condition that tells them apart may be missing. Equal entries are not always repeated.

What was measured:
C2C12 cells = assay: Differentiation and muscle protein expression of C2C12 myoblasts exposed to deacetylase inhibitors (MHC immunofluorescence, Western blot, RT-PCR, FACS); assay type: cell-based, mouse
Experimental: Mouse muscle myoblast C2C12 cells (obtained from the American Type Culture Collection, ATCC CRL-1772) and CC42 cells (from Dr. Kenneth Walsh, Tufts University School of Medicine) were cultured in DMEM supplemented with 20% fetal bovine serum, 2 mM glutamine and 1× kanamycin (growth medium, GM). Cellular differentiation was induced with DMEM supplemented with 2% horse serum and 1× insulin, transferring, selenium (Life Technologies). Human skeletal myocytes (CC-2561) were purchased from Clonetics. Stable C2C12 cell lines with integrated reporters are described in Wu, Z., et al., Mol Cell Biol 20:3951-64 (2000). The MCK-luc, 4RE-luc, MEF2 reporter constructs have been described in Puri, P. L., et al., EMBO Journal 16:369-83 (1997a) and Sartorelli, V., et al., Molecular & Cellular Biology 17:1010-26 (1997). The E2F-luc plasmid is described in Helin, K., et al., Genes Dev 7:1850-61 (1993). The MLC-lacZ-nls plasmid is described in Wu, et al. (2000). Dr. Stuart Schreiber (Harvard University) provided the vector expressing Flag-HDAC1, which is described in Taunton, J., et al., Science 272: 408-11 (1996). Transient transfections were performed using FuGENE 6 transfection reagent (Roche Molecular Biochemicals). Following transfections, luciferase activity was determined using the Dual-Luciferase reporter assay system (Promega) on a microtiter luminescence detection system (MLX, Dynex).
For immunoblotting, cell extracts were obtained after incubating the cells in standard lysis buffer. Western blots were probed with the following antibodies: anti-MHC (MF-20), anti-myogenin (FD5), and anti-tubulin (E7), obtained from the Developmental Studies Hybridoma Bank, University of Iowa. Primary antibodies were visualized with the ECL cheminoluminescent kit (Amersham). Cells were fixed and stained with anti-MHC MF-20 antibodies. Nuclei were visualized by 4′,6′-[…]-2-phenylindole (DAPI). FITC-conjugated or Texas red-conjugated secondary antibodies were employed to reveal the primary antibodies.
C2C12 and CC42 cells were exposed to sodium butyrate 5 mM (Sigma), trichostatin A 50 nM (Upstate Biotechnologies), or valproic acid 10 mM (Sigma) for 24 hours in GM (GM regimen). TSA was removed and the cells cultured in DM for 48 hrs before being analyzed. When indicated (DM regimen), the cells were exposed to deacetylase inhibitors when switched from GM to DM and cultured in their presence for 48 hrs.
Another striking effect induced by DI is their ability to increase the number of nuclei present in MHC positive cells. While approximately 15% of the total nuclei are present in elongated, MHC-positive myotubes not exposed to DI, approximately 75-80% of the total nuclei are detected in hypernucleated MHC-positive myotubes when these have been previously exposed to DI (see FIG. 1D and Table 1). In Table 1, C2C12 cells were either exposed to sodium butyrate, TSA, VPA or left untreated for 24 hours in GM. The medium was replaced with DM without DI, and MHC expression was detected by immunofluorescent staining. Nuclei were visualized with DAPI. The values in parenthesis indicate the percentage of nuclei detected in MHC-positive cells. The values are derived from two independent trials.

MyoD = assay: In vivo acetylation assay (3H-acetate incorporation); assay type: cell-based, mouse; details: myoblasts cultured in GM
Experimental: In FIG. 3A, MyoD acetylation in undifferentiated C2C12 myoblasts (GM) untreated (−) or treated with either sodium butyrate (Butyr.) or TSA and in differentiated myotubes (abbrev. DM in FIG. 3A, but not to be confused with the abbreviation for “differentiation medium” as used elsewhere herein) was measured by ^3H incorporation of exogenously transfected Flag-tagged MyoD following metabolic labeling with ^3H sodium acetate as described in Sartorelli, V., et al., Molecular Cell 4:725-34 (1999). […] Chromatin was immunoprecipitated with antibodies against acetyl-histone 4 (AcH4) or IgG (as a control). Purified DNA from anti-AcH4 immunoprecipitated chromatin was analyzed by PCR using primers recognizing GAPDH promoter and MCK enhancer as described in Example 1. Unbound DNA (lanes 2 and 3, top panel) is an aliquot of chromatin not immunoprecipitated by anti-AcH4 antibody and amplified with GAPDH primers. Input (lanes 2 and 3, bottom panel) is an aliquot (1%) of the chromatin analyzed before the immunoprecipitation to quantify the amount of DNA present in different samples. […] Myoblasts were then formaldehyde cross-linked and processed.
In vivo acetylation assay was performed as described in Sartorelli, V., et al., Molecular Cell 4:725-34 (1999).
The acetylation of MyoD by ^3H-acetate incorporation in myoblasts, cultured in either the absence or presence of TSA, was evaluated. […]

MLC3F-lacZ-nls construct = assay: β-Galactosidase assay of cells transfected with MLC3F-lacZ-nls; assay type: cell-based, mouse; details: transfected cells exposed in GM, then DM 48 hours; vs non-treated cells
Experimental: FIGS. 4A-C illustrate that embryos exposed to DI display enhanced somitogenesis and increased muscle gene expression. […] Cells were then exposed to TSA (50 nM) in GM and subsequently switched to DM for 48 hours. Cells were stained to detect β-galactosidase activity. FIG. 4B is a picture of E 10.5 embryos derived from MLC1/3F-nLacZ transgenic mice exposed to either TSA or VPA treatment (see Example 1) and stained for 1 hour at 30° C. to detect β-galactosidase activity. […] FIG. 4C is a Western blot of extracts derived from total embryos exposed to either TSA or VPA; MHC is detected.
Cells transfected with MLC-lacZ-nls were washed twice in PBS, fixed in 4% paraformaldeheyde-PBS for 5 min, washed twice in PBS, and stained for 2-5 hrs with 5 mM potassium ferrycyanide, 5 mM potassium ferrocyanide, 2 mM MgCl2, 1 mg/ml X-gal (5-bromo-4-chloro-3-indolyl-β-D-galactoside).

mouse embryos = assay: Embryos of pregnant MLC1/3F-nLacZ mice exposed in utero (somitogenesis, muscle gene expression); assay type: in vivo
Experimental: MLC1/3F-nLacZ pregnant mice (E 8.5) received intra peritoneal injection of 15 μg of TSA (WAKO chemicals, Neuss Germany) or VPA (Sigma) at E 8.5 and E 9.5 as described in Faiella, A., et al., Hum Mol Genet 9:227-36 (2000), and Nervi, C., et al., Cancer Res 61:1247-9 (2001). VPA was dissolved in distilled water and administered at doses of 6 mg/mice (about 150 μg/ml) every 12 h at E 8.5, E 9, E 9.5, E 10 as described in Faiella et al. (2000). […] Mice were sacrificed at E 10.5, and the embryos were observed under a dissecting stereo-microscope to evaluate their viability, presence of external malformations, and number of somites. Embryos were fixed in 4% paraformaldehyde for histology and X-Gal staining or immunocytochemistry using antibodies against MyoD and myosin heavy chains as described in Tajbakhsh, S., et al., Neuron 13:813-21 (1994).
DI was administered intraperitoneally to pregnant mice (at a concentration of 0.5 to 1 mg/Kg for TSA and 200 mg/Kg for VPA) at post-implantation stages of E 8.5, and the pregnant mice were sacrificed at 10.5, when MyoD expression is clearly detectable in the myotomes. […] In Table 2, Somites of MLC1/3F-nLacZ mice (injected at day 8.5 and sacrificed at day 10.5) were scored after staining the embryos to detect β-galactosidase activity.

[1] = C2C12, DI 24 hours in GM, then DM without DI, Tr. 1 and Tr. 2
[2] = i.p. to pregnant mice at E 8.5, sacrificed at 10.5, 0.5 to 1 mg/Kg TSA, 200 mg/Kg VPA
[3] = treated at E 8.5, sacrificed at E 9.5

With `CC(/C=C/C(=O)NO)=C\[C@@H](C)C(=O)c1ccc(N(C)C)cc1` [TSA, trichostatin A] the “Nuclei/MHC-Positive Cells (number of nuclei)” value (C2C12 cells; [1]) was 200 and 210, the “percentage of nuclei detected in MHC-positive cells” value (C2C12 cells; [1]) was 75% and 65% and the “endogenous MCK transcripts (RT-PCR)” value (C2C12 cells; undifferentiated myoblasts exposed in GM) was “induction of endogenous MCK transcripts”. The “MHC expression and frequency of MHC-positive multinucleated cells” value (C2C12 cells; undifferentiated myoblasts exposed in GM, differentiated in the absence of DI, vs untreated cells) was “effects undistinguishable from those exerted by sodium butyrate”, the “incorporation of 3H-acetate into transfected MyoD” value (MyoD) was “stimulated the incorporation” and the β-galactosidase-positive nuclei (MLC3F-lacZ-nls construct) was “increased β-galactosidase-positive nuclei”. For the same molecule, the “level of MLC-lacZ transgene expression” value (mouse embryos; E 10.5 embryos, vs control embryos) was “higher level of MLC-lacZ transgene expression”, the “# somites (β-galactosidase staining)” value (mouse embryos; MLC1/3F-nLacZ mice injected at day 8.5, sacrificed at day 10.5, TSA [1 mg/ml] (20 ul + 380 ul PBS), VPA 155 mM, one value per embryo, PBS controls 25-32) was 32 and 37 and 34 and 36 and 33 and the Notch transcripts (mouse embryos; animals exposed to a DI) was “increased”. For the same molecule, the “levels of MHC in exposed embryos (Western blot)” value (mouse embryos; extracts of total embryos) was “augmented the levels of MHC”, the “number of MLC expressing somites” value (mouse embryos; [2]) was “consistently increased” and the “number of MyoD expressing myotomes” value (mouse embryos; [2]) was “consistently increased”. For the same molecule, the “acetylation of histone H4 in embryos” value (mouse embryos; [3]) was “increased acetylation of histone H4”, the “embryo size vs control embryos” value (mouse embryos; [3]) was “modestly and consistently larger than control embryos” and the “increase in number of somites vs control embryos” value (mouse embryos; [3]) was “+2 to +6”. The “number of somites expressing Myf-5” value (mouse embryos; [3]) was “increased”.
